Experimental data from PubChem BioAssay AID1963850 (Molecular Pharmacology Branch, DTP, NCI, 2024).
pIC50: −log10 of the molar value.

Test system: 192522-019-R-J2-PDC complex tumor spheroid viability
Test: Anticancer human tumor 192522-019-R-J2-PDC patient-derived colon adenocarcinoma cell line growth inhibition [POLQ]
Details: for pIC50: curve of first compound; for viability, T/C: stronger effect = lower value
Method in brief: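 Three-cell-type spheroids modelling solid tumor plus stroma served as the readout system; POL inhibitors were tested individually and in combination, concentration ranges set by clinical Cmax where known.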

[1] = second compound 0.0316 µM, first compound 0.0316 µM
[2] = second compound 0.0316 µM, first compound 0.1 µM
[3] = second compound 0.0316 µM, first compound 0.316 µM
[4] = second compound 0.0316 µM, first compound 1 µM
[5] = second compound 0.0316 µM, first compound 3.16 µM
[6] = second compound 0.0316 µM, first compound 10 µM
[7] = second compound 0.1 µM, first compound 0.0316 µM
[8] = second compound 0.1 µM, first compound 0.1 µM
[9] = second compound 0.1 µM, first compound 0.316 µM
[10] = second compound 0.1 µM, first compound 1 µM
[11] = second compound 0.1 µM, first compound 3.16 µM
[12] = second compound 0.1 µM, first compound 10 µM
[13] = second compound 0.316 µM, first compound 0.0316 µM
[14] = second compound 0.316 µM, first compound 0.1 µM
[15] = second compound 0.316 µM, first compound 0.316 µM
[16] = second compound 0.316 µM, first compound 1 µM
[17] = second compound 0.316 µM, first compound 3.16 µM
[18] = second compound 0.316 µM, first compound 10 µM
[19] = second compound 1 µM, first compound 0.0316 µM
[20] = second compound 1 µM, first compound 0.1 µM
[21] = second compound 1 µM, first compound 0.316 µM
[22] = second compound 1 µM, first compound 1 µM
[23] = second compound 1 µM, first compound 3.16 µM
[24] = second compound 1 µM, first compound 10 µM
[25] = second compound 3.16 µM, first compound 0.0316 µM
[26] = second compound 3.16 µM, first compound 0.1 µM
[27] = second compound 3.16 µM, first compound 0.316 µM
[28] = second compound 3.16 µM, first compound 1 µM
[29] = second compound 3.16 µM, first compound 3.16 µM
[30] = second compound 3.16 µM, first compound 10 µM
[31] = second compound 10 µM, first compound 0.0316 µM
[32] = second compound 10 µM, first compound 0.1 µM
[33] = second compound 10 µM, first compound 0.316 µM
[34] = second compound 10 µM, first compound 1 µM
[35] = second compound 10 µM, first compound 3.16 µM
[36] = second compound 10 µM, first compound 10 µM
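Further: spheroids exposed to drugs for seven days before reading.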
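Wherever viability, T/C is given: 100% = DMSO vehicle control viability in luminescence.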

Structure (SMILES): CNCc1ccc(-c2[nH]c3cc(F)cc4c3c2CCNC4=O)cc1 + COC1C(OC(N)=O)C(O)C(Oc2ccc3c(O)c(NC(=O)c4ccc(O)c(CC=C(C)C)c4)c(=O)oc3c2C)OC1(C)C
- pIC50 (second compound 0.0316 µM): < 5.00
- pIC50 (second compound 0.1 µM): < 5.00
- pIC50 (second compound 0.316 µM): < 5.00
- pIC50 (second compound 1 µM): < 5.00
- pIC50 (second compound 3.16 µM): < 5.00
- pIC50 (second compound 10 µM): < 5.00
- viability, T/C [1]: 94.4%
- viability, T/C [2]: 90.5%
- viability, T/C [3]: 96%
- viability, T/C [4]: 99.2%
- viability, T/C [5]: 102%
- viability, T/C [6]: 99.3%
- viability, T/C [7]: 110%
- viability, T/C [8]: 96%
- viability, T/C [9]: 96.4%
- viability, T/C [10]: 103%
- viability, T/C [11]: 114%
- viability, T/C [12]: 96.4%
- viability, T/C [13]: 107%
- viability, T/C [14]: 102%
- viability, T/C [15]: 102%
- viability, T/C [16]: 107%
- viability, T/C [17]: 99.5%
- viability, T/C [18]: 101%
- viability, T/C [19]: 99.7%
- viability, T/C [20]: 96%
- viability, T/C [21]: 98.5%
- viability, T/C [22]: 104%
- viability, T/C [23]: 102%
- viability, T/C [24]: 97.5%
- viability, T/C [25]: 110%
- viability, T/C [26]: 98.7%
- viability, T/C [27]: 102%
- viability, T/C [28]: 101%
- viability, T/C [29]: 99.9%
- viability, T/C [30]: 95.7%
- viability, T/C [31]: 102%
- viability, T/C [32]: 95%
- viability, T/C [33]: 106%
- viability, T/C [34]: 96.9%
- viability, T/C [35]: 98.6%
- viability, T/C [36]: 102%

Structure (SMILES): COc1cccc2c1C(=O)c1c(O)c3c(c(O)c1C2=O)CC(O)(C(=O)CO)CC3OC1CC(N)C(O)C(C)O1 (stereo unspecified) + Cc1cccc(N(C)C(=O)C2C(O)CCN2c2nc(C)cc(C(F)(F)F)c2C#N)c1
- pIC50 (second compound 0.0316 µM): < 5.00
- pIC50 (second compound 0.1 µM): < 5.00
- pIC50 (second compound 0.316 µM): < 5.00
- pIC50 (second compound 1 µM): < 5.00
- pIC50 (second compound 3.16 µM): < 5.00
- pIC50 (second compound 10 µM): < 5.00
- viability, T/C [1]: 99.3%
- viability, T/C [2]: 79.8%
- viability, T/C [3]: 73.9%
- viability, T/C [4]: 86.3%
- viability, T/C [5]: 69.6%
- viability, T/C [6]: 57.2%
- viability, T/C [7]: 94%
- viability, T/C [8]: 85.6%
- viability, T/C [9]: 72.5%
- viability, T/C [10]: 83.8%
- viability, T/C [11]: 69.1%
- viability, T/C [12]: 67.7%
- viability, T/C [13]: 98.3%
- viability, T/C [14]: 91.1%
- viability, T/C [15]: 69.4%
- viability, T/C [16]: 77%
- viability, T/C [17]: 65.2%
- viability, T/C [18]: 63.3%
- viability, T/C [19]: 110%
- viability, T/C [20]: 92%
- viability, T/C [21]: 76.5%
- viability, T/C [22]: 83.7%
- viability, T/C [23]: 75.5%
- viability, T/C [24]: 61.1%
- viability, T/C [25]: 96.5%
- viability, T/C [26]: 99.9%
- viability, T/C [27]: 74.2%
- viability, T/C [28]: 69.7%
- viability, T/C [29]: 70.9%
- viability, T/C [30]: 60.3%
- viability, T/C [31]: 102%
- viability, T/C [32]: 79.1%
- viability, T/C [33]: 69.9%
- viability, T/C [34]: 62.7%
- viability, T/C [35]: 67.3%
- viability, T/C [36]: 49.8%

Structure (SMILES): CC1COCCN1c1cc(C2(O)CC3CCC(C2)O3)c2cnn(-c3ccn[nH]3)c2n1 (stereo unspecified) + Cc1cccc(N(C)C(=O)C2C(O)CCN2c2nc(C)cc(C(F)(F)F)c2C#N)c1
- pIC50 (second compound 0.0316 µM): 6.60
- pIC50 (second compound 0.1 µM): 6.59
- pIC50 (second compound 0.316 µM): 6.53
- pIC50 (second compound 1 µM): 6.33
- pIC50 (second compound 3.16 µM): 6.26
- pIC50 (second compound 10 µM): 6.54
- viability, T/C [1]: 117%
- viability, T/C [2]: 70.1%
- viability, T/C [3]: 47.8%
- viability, T/C [4]: 29.2%
- viability, T/C [5]: 43.7%
- viability, T/C [6]: 46.3%
- viability, T/C [7]: 95.8%
- viability, T/C [8]: 73.1%
- viability, T/C [9]: 42%
- viability, T/C [10]: 35.9%
- viability, T/C [11]: 37.3%
- viability, T/C [12]: 64.2%
- viability, T/C [13]: 101%
- viability, T/C [14]: 82.9%
- viability, T/C [15]: 49.2%
- viability, T/C [16]: 33.8%
- viability, T/C [17]: 43.5%
- viability, T/C [18]: 52.3%
- viability, T/C [19]: 94.1%
- viability, T/C [20]: 85.5%
- viability, T/C [21]: 54.8%
- viability, T/C [22]: 34.5%
- viability, T/C [23]: 38.6%
- viability, T/C [24]: 54.3%
- viability, T/C [25]: 98.3%
- viability, T/C [26]: 89.3%
- viability, T/C [27]: 55.1%
- viability, T/C [28]: 32.1%
- viability, T/C [29]: 46.8%
- viability, T/C [30]: 56.8%
- viability, T/C [31]: 102%
- viability, T/C [32]: 78.1%
- viability, T/C [33]: 48.8%
- viability, T/C [34]: 32.8%
- viability, T/C [35]: 51.7%
- viability, T/C [36]: 50%
